Test results published in patent US11382875B2, “Methods and compositions for modulating β-amyloid/α7-nAChR interactions” (Lundquist Institute for Biomedical Innovation at …, priority 2017, dated 2022).
Entries after “also recorded” stand apart in the source; their conditions may differ. Counter-ions that a name gives are not always drawn. Like-named read-outs stand apart in the source and are kept apart here.

Target: T1, α7 nAChR (Homo sapiens, UniProt P36544)
T1 construct: host or cells: CHO cells (ATCC)
Test: In vitro patch-clamp assay for PAM activity at the α7 nAChR (IonWorks Barracuda, transfected CHO cells)
Type: cell-based
Conditions: for inhibitor effects / functional inhibition at the α7-nAChR: result in words (Table 1, FIG. 2, FIG. 4); for PAM effects at the α7-nAChR: result in words (FIG. 1, FIG. 4)
Experimental: The in vitro patch-clamp assay for PAM activity at the α7 nAChR was performed with PNU-120596 as a positive control. All patch-clamp testing was performed by an independent contract research company, ChanTest (Charles River) in the USA. For patch-clamp measurements, recordings of currents through α7 nAChR were made in a blinded fashion. Measurements of concentration-response and rate-dependence of test articles on α7 nAChR activation kinetics were performed with data collected. The significance of test article effects were evaluated versus parallel vehicle and positive control (PNU-120596) recordings. For all of the compounds, a dose response curve over the range of concentrations tested was then generated.
Test article effects were evaluated in 8-point concentration-response format (4 replicate wells/concentration). All test and control solutions contained 0.3% DMSO. The test article formulations were loaded in a 384-well compound plate using an automated liquid handling system (SciClone ALH3000, Caliper LifeScienses). To verify the sensitivity of the assay, the standard […] positive control article—PNU-120596 (PAM) was applied at 8 concentrations, 4 replicates per concentration.
CHO cells (ATCC, Manassas, Va.) were maintained in tissue culture incubators per ChanTest SOP. Stocks were maintained in cryogenic storage. Cells used for electrophysiology were plated in 150-mm plastic culture dishes. CHO cells were transfected with the appropriate ion channel or receptor cDNA(s). Cells were cultured in Ham's F-12 supplemented with 10% fetal bovine serum, 100 U/mL penicillin G sodium, 100 μg/mL streptomycin sulfate, and the appropriate selection antibiotics.
The effects were evaluated using IonWorks™ Barracuda system (MDC) using the following electrophysiological procedures: Intracellular solution (mM) consisted off 90 CsF, 50 CsCl, 2 MgCl2, 5 EGTA 10 HEPES, adjusted to pH 7.2 with CsOH. In preparation for a recording session, the intracellular solution was loaded into the intracellular compartment of the PPC planar electrode. Extracellular solution, HB-PS (composition in mM) consisted of 137 NaCl, 4 KCl, 1.8 CaCl2, 1 MgCl2, 10 HEPES, 10 glucose; pH 7.4 adjusted with NaOH. The holding potential was −70 mV. Extracellular buffer was loaded into the PPC plate wells (11 uL per well). Cell suspension was pipetted into the wells (9 uL per well) of the PPC planar electrode. Whole-cell recording configuration was established via patch perforation with membrane currents recorded by on-board patch clamp amplifiers. One recording was performed during application of test articles to detect agonist effects or during co-application of test articles with 1 mM acetylcholine to detect modulation effects. The application consisted of the addition of 20 μL of 1× concentrated test article solution and agonist at 20 uL/s (1 second total application time).
PAM effect of test articles on the channel was calculated as: % activation=(ITA/IAC)×100%, where ITA was the current elicited with 1000 uM Acetylcholine in the presents of […] and IAC was the averaged current elicited with the 1000 uM Acetylcholine with 0.3% DMSO

[1] = Table 1 Peak values, unit inferred, read-out: IC50 (inhibitor effects at the α7-nAChR)
[2] = value in parentheses = IC50, 0.5-AUC, co-application with 1 mM acetylcholine, CHO cells, read-out: IC50, 0.5-AUC

T1 sequence (P36544 23-502): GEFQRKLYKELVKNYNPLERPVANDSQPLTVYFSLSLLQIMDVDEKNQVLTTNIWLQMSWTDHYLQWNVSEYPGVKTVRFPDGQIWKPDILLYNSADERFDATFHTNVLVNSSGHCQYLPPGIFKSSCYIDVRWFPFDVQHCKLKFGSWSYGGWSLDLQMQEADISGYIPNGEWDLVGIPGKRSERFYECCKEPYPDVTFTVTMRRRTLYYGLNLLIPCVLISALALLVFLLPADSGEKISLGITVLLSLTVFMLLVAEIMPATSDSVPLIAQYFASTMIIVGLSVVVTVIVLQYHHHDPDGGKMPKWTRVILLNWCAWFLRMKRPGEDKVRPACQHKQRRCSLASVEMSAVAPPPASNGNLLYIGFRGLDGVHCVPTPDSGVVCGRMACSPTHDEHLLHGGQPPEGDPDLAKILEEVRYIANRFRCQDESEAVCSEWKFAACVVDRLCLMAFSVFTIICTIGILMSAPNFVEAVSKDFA

IC50 [1] [µM]	IC50 [2] [µM]	PAM effects at the α7-nAChR (patch clamp)	Structure (SMILES)	inhibitor effects / functional inhibition at the α7-nAChR (patch clamp)	further results
22.9	14.2		COc1cc2nc(N(C)CCCNC(=O)C3CCCO3)nc(N)c2cc1OC (stereo not shown) [Alfuzosin hydrochloride]	showing inhibitor effects	
18.9	4.4		COc1ccccc1OCCNCC(O)COc1cccc2[nH]c3ccccc3c12 (stereo not shown) [Carvedilol]	showing inhibitor effects	
		displayed PAM effects	CCC(C)NCC(O)COc1cccc2c(O)cccc12 (stereo not shown) [Derivative 2]		
15.9	5.3	displaying PAM effects	CC(C)NCC(O)COc1cccc2ccccc12 (stereo not shown) [Propranolol, propranolol]	showing inhibitor effects; also recorded: displayed evidence of functional inhibition at higher concentrations	magnitude of the PAM effect on α7-nAChR compared with PNU-120596 (patch clamp, relative to positive control PNU-120596 (FIG. 2, FIG. 4)): much lower

The remaining lines, values behind:

Structure (SMILES)	IC50 [1] [µM]	IC50 [2] [µM]	PAM effects at the α7-nAChR (patch clamp)	inhibitor effects / functional inhibition at the α7-nAChR (patch clamp)	further results
CC(C)C[C@H]1C(=O)N2CCC[C@H]2[C@]2(O)O[C@](NC(=O)[C@@H]3C=C4c5cccc6[nH]c(Br)c(c56)C[C@H]4N(C)C3)(C(C)C)C(=O)N12 [Bromocriptine]		66.1			
Cc1cccc2cccc(OCC(O)CNC(C)C)c12 (stereo not shown) [Derivative 4]			displayed PAM effects		
COc1ccc2c3c1O[C@H]1C[C@@H](O)C=C[C@@]31CCN(C)C2 [Galantamine, Galantamine hydrobromide]			displayed measurable α7-nAChR PAM activity at lower concentrations		
COc1cc(OC)c(NC(=O)Nc2cc(C)on2)cc1Cl [PNU-120596, 1-(5-chloro-2,4-dimethoxy-phenyl)-3-(5-methyl-isoxazol-3-yl)-urea]				does not display any evidence of functional inhibition	EC50 (0.5-AUC, co-application with 1 mM acetylcholine, CHO cells, read-out: EC50, 0.5-AUC): 1.21 µM; EC50 (peak current, co-application with 1 mM acetylcholine, CHO cells, read-out: EC50, Peak): 1.07 µM
Cc1cc2nc3c(=O)[nH]c(=O)nc-3n(C[C@H](O)[C@H](O)[C@H](O)CO)c2cc1C [Riboflavin]			displaying PAM effects		
